These results are taken from patent US20250102494A1, “COMPOSITION FOR PREDICTING OXALIPLATIN DRUG EFFICACY, AND USE THEREOF” (SAMSUNG LIFE PUBLIC WELFARE FOUNDATION, priority 2022, published 2025).

In this assay the test system is HCT116 cells. The assay can be described thus: ATPlite cell viability after drug treatment, HCT116 cells in cell-line or organoid culture media. The assay is classed as cell-based. The conditions noted are these: HCT-116; for drug response, colorectal cancer cell line compared with cells under Ex1 organoid culture conditions: FIG. 2; for drug responsiveness, colorectal cancer cell line compared with organoids cultured in Ex1 and Ex2: FIG. 25. The method, then: Advanced DMEM/F12+++ (hereinafter referred to as “Ad/DF+++”) was used to produce colorectal cancer organoids. Ad/DF+++ was refrigerated at 4° C. until use, and was used in a cold state during cell washing. Ad/DF+++ medium containing the reagents shown in Table 1 below along with Ad/DF 1× (Gibco) was prepared.
After preparing the Ad/DF+++ medium containing the above reagents, an appropriate amount of Matrigel (Corning #356231) was added so that the ratio between Matrigel and cells suspended in the Ad/DF+++ medium was 7:3. Then, the cells were plated on low attachment well plates at an appropriate density. The density and the type and number of well plates were determined according to the characteristics of each cell type. The medium was prepared according to the composition shown in Table 2 below, and the cells were cultured (expanded) until the required level was reached while the medium was replaced every 3 to 4 days.
If the organoids were expanded as needed for the experiment, the medium was carefully removed, taking care not to touch the Matrigel. The cells were separated from the Matrigel by pipetting about 20 times with 1 ml of cold Ad/DF+++. The cells in 1 to 4 wells per 6-well plate were collected in one 50 ml tube. If cells are collected from more than 4 wells into one tube, the Metrigel may not be washed properly. For this reason, the cells were placed in several tubes. Thereafter, Ad/DF+++ was poured to 20 to 50 ml of each tube, followed by centrifugation at 400 g for 3 minutes at 4° C. The cells were dissociated with 1 to 2 mL of TrypLE™ Express Enzyme (Gibco, 1264-013), transferred to low-attachment 24 well plates, and then treated with 10 μM of Y-27632. Next, the cells were cultured in a CO2 incubator for 5 minutes at 37° C. After pipetting about 20 times, whether the cells would be dissociated into single cells was checked by microscopic observation. If the cells were not dissociated into single cells, the culture under CO2 and pipetting processes were repeated. After the single cells were transferred into 15-ml tubes, Ad/DF+++ was filled to 10 to 15 ml of each tube, followed by centrifugation at 400 g at 4° C. for 3 minutes. After suspending the pellet in Ad/DF+++, the cells were counted and diluted with medium according to the required number of cells.
12 hours after seeding in Experimental Example 1-2 above, the medium was changed with the medium shown in Table 3 below, followed by culturing to produce organoids.
Four hours after the medium change, the cells were treated with oxaliplatin, 5-FU, Irinotecan, and folinic acid. Five days after drug treatment, intracellular ATP expression was determined using the ATPlite assay kit (PerkinElmer), and the data were expressed in terms of cell viability, IC50, and AUC.
As the standard for confirming that cells are sensitive to the drug, the response of the cells to the drug was assumed to be 100%, and the luminescence value of surviving cells after drug treatment was analyzed and compared with the quantified drug response value.
Based on the assumption that the factor that increases the resistance of the organoids to oxaliplatin is an activator or inhibitor that changes the phenotype, the organoids prepared by excluding some or all of activators and inhibitors as shown in Table 4 below were treated with oxaliplatin.
In order to identify the factors that reduce the resistance to oxaliplatin of the Ex2 organoid, activators or inhibitors that change the phenotype were added one by one to the Ex2 organoid composition, thus producing organoids as shown in Table 8 below. Then, it was checked whether the produced organoids had increased resistance to oxaliplatin.

As to `Nc1nc(=O)c2c([nH]1)NCC(CNc1ccc(C(=O)N[C@@H](CCC(=O)O)C(=O)O)cc1)N2C=O` (mixture of isomers) [folinic acid], the “drug response, colorectal cancer cell line compared with cells under Ex1 organoid culture conditions” value is “drug response results similar to those of the cells cultured under the organoids culture conditions”; the “drug responsiveness, colorectal cancer cell line compared with organoids cultured in Ex1 and Ex2” value is recorded as “drug responses similar to the cells cultured in the organoid culture conditions”.
`O=c1[nH]cc(F)c(=O)[nH]1` [5-FU, 5-fluorouracil]: the “drug response, colorectal cancer cell line compared with cells under Ex1 organoid culture conditions” value is “drug response results similar to those of the cells cultured under the organoids culture conditions”; the “drug responsiveness, colorectal cancer cell line compared with organoids cultured in Ex1 and Ex2” value is listed as “drug responses similar to the cells cultured in the organoid culture conditions”.
Turning to `CCc1c2c(nc3ccc(OC(=O)N4CCC(N5CCCCC5)CC4)cc13)-c1cc3c(c(=O)n1C2)COC(=O)[C@]3(O)CC` [irinotecan], the “drug response, colorectal cancer cell line compared with cells under Ex1 organoid culture conditions” value is “drug response results similar to those of the cells cultured under the organoids culture conditions”; the “drug responsiveness, colorectal cancer cell line compared with organoids cultured in Ex1 and Ex2” value was “drug responses similar to the cells cultured in the organoid culture conditions”.
